According to patent US20090305955A1, “Cyclopeptide with Anti-Cancer Activity Derived from Collagen Type IV” (priority 2006, published 2009):
Where a SMILES comes first, the peptide text is derived from it.

Columns and labels:
Assay type in all cases: cell-based, human
HUVEC cells [1] = test: HUVEC cell proliferation
MT1-MMP = test: Western blot of proMMP-14 / MMP-14, HUVEC membrane extracts; conditions: 20 μM
Description: FIG. 19: Effect of YSNSG (SEQ ID NO: 3) cyclopeptide on expression and activation of MMP-14 by HUVEC cells. The expression of proMMP-14 and MMP-14 was studied by Western blot (A). The HUVEC cells were cultivated in the absence (control) or in the presence of 20 μM of YSNSG (SEQ ID NO: 3) cyclopeptide and the corresponding membrane extracts were analyzed. Quantification was carried out using Bio 1D software (B);
(§1) The samples underwent 10% polyacrylamide gel electrophoresis in the presence of 0.1% SDS then were transferred onto Immobilon-P membranes (Millipore, St Quentin en Yvelines, France). The membranes were saturated with 5% freeze dried skimmed milk, Tween 20 0.1% in a 50 mM Tris-HCl, 150 mM NaCl buffer, pH 7.5 (TBS) for 2 hours at ambient temperature. The membranes were then incubated overnight at 4° C. with anti-MMP-14, anti-PAI-1 and anti-u-PAR antibodies then incubated for one hour at ambient temperature with a secondary antibody (anti-IgG) conjugated with peroxidase. The immune complexes were visualized with an ECL chemoluminescence detection kit.

HMEC-1 cells = test: Formation of capillary pseudotubes on Matrigel; conditions: 24 hours
Description: FIG. 17: In vitro anti-angiogenic activity of cyclopeptide YSNSG (SEQ ID NO: 3). A: microscope photographs of the network of capillary pseudotubes of HMEC-1 endothelial cells after 24 hours incubation in the absence of peptide (control; 1), with the cyclopeptide YSNSG (SEQ ID NO: 3) at a concentration of 10 or 20 μM (2 and 3 respectively) or with the linear heptapeptide CNYYSNS (SEQ ID NO: 5) (20 μM) (positive control; 4). B: quantification of number of pseudotubes in photographs in A;
(§2) The in vitro anti-angiogenic activity of the cyclopeptide YSNSG (SEQ ID NO: 3) was measured on the formation of capillary pseudotubes by endothelial HMEC-1 or HUVEC cells deposited on a Matrigel mat.
A solution of Matrigel (ECM gel: 10 mg/ml) was deposited in a sterile manner in 24-well plates (Nunclon) in an amount of 250 μl per well onto piled ice. Gel formation was obtained by incubating the plate at 37° C. for 30 min. HMEC-1 cells or HUVEC cells at sub-confluence were detached from their plastic culture support by adding trypsin/EDTA then taken up into suspension in the culture medium for endothelial cells and diluted to a concentration of 2×10^5 cells per ml. 100 μl volumes of this cell suspension were deposited on the gel surface. […] Quantification was carried out using image analysis software.

u-PA = test: Zymography in the presence of gelatine and plasminogen, HUVEC conditioned medium; conditions: 20 μM
Description: FIG. 20: Effect of YSNSG (SEQ ID NO: 3) cyclopeptide on the secretion of plasminogen activators. The secretion of u-PA and t-PA was analyzed by zymography in the presence of gelatine and plasminogen (A) in a medium conditioned by HUVEC cells in the absence (control) or in the presence of 20 μM of cyclopeptide YSNSG (SEQ ID NO: 3). Quantification was carried out using Bio 1D software (B);
To determine the plasminogen activities, conditioned media of UACC-903 cells were analyzed by polyacrylamide gel electrophoresis in the presence of SDS and containing 1 mg/ml of gelatine and 10 μg/ml of plasminogen. After electrophoresis, the gels were incubated overnight at ambient temperature in a 100 mM glycine, 5 mM EDTA, pH 8.0 buffer.

actin cytoskeleton = test: Labelling actin F (phalloidin), HUVEC cells; conditions: 20 μM, 48 h
Description: FIG. 22: Effect of YSNSG (SEQ ID NO: 3) cyclopeptide on the organization of the cytoskeleton of HUVEC cells. The cells were cultivated on glass slides in the absence (control) or in the presence of 20 μM of YSNSG (SEQ ID NO: 3) cyclopeptide. After 48 h of incubation, the cells were fixed, permeabilized, incubated with phalloidin (A) or with an anti-Phospho-FAK antibody (B) then with Hoechst-33342. The slides were observed under a confocal microscope;
The cells were seeded onto sterile glass slides placed in a 24-well plate (2×10^4 cells/well) in a suitable medium containing 5% of serum, in the presence or absence of the cyclopeptide YSNSG (SEQ ID NO: 3). After 24 and 48 hours incubation, the cells were fixed with 3.7% formaldehyde for 10 minutes at ambient temperature and permeabilized for 3 minutes with an acetone solution at −20° C. Three 5 minute washes in PBS were carried out, then the cells were incubated for 30 minutes at ambient temperature in a saturation solution (PBS containing 1% bovine serum albumin). The cells were then incubated for 1 hour with phalloidin coupled with Alexa Fluor® 568 (diluted 1/40 in PBS containing 1% BSA) then washed 3 times for 5 minutes with PBS.

PAI-1 = test: Western blot of PAI-1 secretion, UACC-903 cells; conditions: cyclopeptide 5 to 20 μM
Description: FIG. 15: Effect of YSNSG (SEQ ID NO: 3) cyclopeptide on secretion of PAI-1 (plasminogen activator inhibitor-1). The secretion of PAI-1 was analyzed by Western Blot (A) in a medium conditioned by UACC-903 cells control in the absence of peptide (negative control, white bar), in cells treated with linear heptapeptide CNYYSNS (SEQ ID NO: 5) (20 μM) (positive control, black bar) or treated with YSNSG (SEQ ID NO: 3) cyclopeptide at a concentration from 5 μM to 20 μM (grey bars). The conditioned medium was recovered, concentrated and analyzed as described in the methods.
as §1

HUVEC cells [2] = test: Scar wounding technique (artificial wound model); conditions: 48 h incubation, 20 μM
Description: FIG. 18: In vitro inhibition of HUVEC cell migration in the presence of YSNSG (SEQ ID NO: 3) cyclopeptide. Microscope photographs of artificial wounds produced on a monolayer of endothelial cells at T0 and T48h in the absence of peptide (control) or in the presence of 20 μM of YSNSG (SEQ ID NO: 3) cyclopeptide;
1×10^5 endothelial cells were seeded into 24-well plates and incubated for 24 hours at 37° C. A wound was made in the cellular monolayer at the centre of the well using a 200 μl cone point. The cells were washed with PBS to eliminate cell debris then incubated in the presence or absence of the cyclopeptide YSNSG (SEQ ID NO: 3). Closing of the wound, a witness to the migratory properties of the cells, was observed under the microscope and photographed after 48 hours incubation.

HUVEC cells [3] = test: Formation of capillary pseudotubes on Matrigel; conditions: 20 μM
Description: as §2
A solution of Matrigel (ECM gel: 10 mg/ml) was deposited in a sterile manner in 24-well plates (Nunclon) in an amount of 250 μl per well onto piled ice. Gel formation was obtained by incubating the plate at 37° C. for 30 min. HMEC-1 cells or HUVEC cells at sub-confluence were detached from their plastic culture support by adding trypsin/EDTA then taken up into suspension in the culture medium for endothelial cells and diluted to a concentration of 2×10^5 cells per ml. 100 μl volumes of this cell suspension were deposited on the gel surface. After incubating for 1 hour at 37° C. to allow cell adhesion, the various peptides were added in solution to 400 μl of the culture medium (final concentration 10 or 20 μM). Pseudotube formation was observed under the microscope and photographed, after incubating for 24 hours. Quantification was carried out using image analysis software.

NC(=O)CC1NC(=O)C(CO)NC(=O)C(Cc2ccc(O)cc2)NC(=O)CNC(=O)C(CO)NC1=O (stereo not drawn) [cyclopeptide YSNSG, cyclopeptide YSNSG (SEQ ID NO: 3)] (cyclo(GYSNS); configuration not given here)
cell proliferation of HUVEC cells (HUVEC cells [1]): did not modify
reduction in the activation of MT1-MMP (MT1-MMP): 56%
reduces the formation of pseudotubes (HMEC-1 cells; 10 μM): 40%
reduces the formation of pseudotubes (HMEC-1 cells; 20 μM): up to 70%
reduction in the production of u-PA (u-PA): −27%
organization of the actin cytoskeleton (actin cytoskeleton): modification
secretion of PAI-1 (PAI-1): large increase
inhibition of the migration of the HUVEC cells (HUVEC cells [2]): 83%
inhibition of capillary pseudotube formation (HUVEC cells [3]): 45%
